Experimental findings from patent US20230192705A1, “SHP2 INHIBITORS, COMPOSITIONS AND USES THEREOF” (Betta Pharmaceuticals Co., Ltd, priority 2020, published 2023) are described below.

One experiment deals with leukemia MV-4-11 cell. Description: Cell proliferation assay (CellTiter-Glo), MV-4-11. Format: cell-based. To be noted: Homo sapiens, MV4-11; MV-4-11, 120 hrs, CTG; class symbols; read-out: Compound on MV-4-11 cell IC50. On the procedure: (§1) The effects of the compounds on the proliferation of leukemia MV-4-11 cell and lung cancer NCI-H358 cell were evaluated by in vitro cell test. The assay used in this study was the CELL TITER-GLO (CTG) luminescence assay, which can detect the number of living cells by quantitative determination of ATP. Because ATP is involved in a variety of enzymatic reactions in vivo and is an indicator of the metabolism of living cells, its content can directly reflects the number and state of cells. During the experiment, Celltiter-Glo™ reagent was added to the cell culture medium to measure the luminescence value. The luminescence value was proportional to the amount of ATP, which in turn was positively correlated with the number of living cells. Therefore, ATP content can be used to detect cell viability.
A bottle of MV-4-11 cells in logarithmic growth phase was taken, the cells were collected, centrifuged, resuspend, counted, and then inoculated into 96-well Microplate (Corning #3917), with 4000 cells inoculated in each well. The plates were placed in an incubator at 37° C. and 5% CO2 for 24 hrs culture, and the compounds of the invention were added for conducting.
(§2) An appropriate amount of the compound of the invention was taken for cell treatment, and the final concentration of the compound from high to low was 1000 nM, 333.3 nM, 111.1 nM, 37.04 nM, 12.35 nM, 4.115 nM, 1.372 nm, 0.4572 nM, 0.1524 nM, 0 nM, respectively. The orifice plate was cultured in an incubator at 37° C. and 5% CO2. Only adding medium without adding cell hole was set as blank group. Compound concentration of 0 nM group was zero control group.
After cultured for 120 hrs, MV-4-11 cells were added with 50 μL CellTiter-Glo® Luminescent cell viability assay solution in each well, gently shaken for 2 mins, and incubated at room temperature for 10 mins. The detection values of each well were read on the multi-functional microplate reader.
(§3) The inhibition rate is calculated according to the luminous value reading,
(§4) Inhibition rate %=(1−(administration group value−blank group value)/(control group value−blank group value)*100
(§5) The log (inhibitor) vs. response variable slope of GraphPad Prism was used to fit the dose-response curve and calculate the IC50 of compounds inhibiting cell proliferation.

Experiment [1] deals with lung cancer NCI-H358 cell. Description: Cell proliferation assay (CellTiter-Glo), NCI-H358. Format: cell-based. The following applies: Homo sapiens; NCI-H358, 96 hrs, CTG; class symbols; read-out: Compound on NCI-H358 cell IC50. On the procedure: as §1
A bottle of NCI-H358 cells in logarithmic growth phase was taken, the cells were digested and resuspend, counted, and then the cell density was adjusted. After that, the cells were inoculated into a 96-well Ultra-Low Attachment Microplate (Corning #3474), 2000 cells were inoculated in each well, and the well plate was placed in an incubator at 37° C. and 5% CO2, and the compounds of the invention were added for conducting.
as §2
NCI-H358 cells were cultured for 96 hrs, then 50 μL CellTiter-Glo® Luminescent cell viability assay solution was added to each well, and the cells were gently shaken for 2 mins, and incubated at room temperature for 10 mins. The cell reaction system was transferred to 96-well Microplate (Corning #3917). The detection values of each well were read on the multi-functional microplate reader.
as §3, §4, §5

The next experiment concerns the target T1, hERG channel (Homo sapiens, UniProt Q12809).
T1 construct: expressed in transfected cells; host or cells: HEK-293
The experiment in a line: Patch clamp assay to test the effect of compound on hERG channel. To be noted: manual patch clamp, HEK 293 cells expressed with hERG, concentration for half maximum effect. It is filed as cell-based. The protocol: 10 mL extracellular solution was used to dilute the stock solution, making the final concentrations of test compound were 0.3 μM, 1 μM, 3 μM, 10 μM and 30 μM.
The solubility of compound was visually observed.
The cell line was derived from HEK-293 cells, and grown in a humidified environment at 37° C. under 5% CO2, using the media formulation below. The cell line should not be allowed to exceed 80% confluence within the culture vessel to prevent contact inhibition causing senescence and should thus be passaged every 3/4 days using a seeding density of 2*10^6 cells per T175 flask. Cell lines were be pre-washed with phosphate buffered saline before harvesting with Trypsin/EDTA and seeded into new flasks.
HEK 293 cells expressed with hERG were plated on cover slips overnight with the cell density less than 50% of confluence. Cells used for electrophysiological study were transferred to a small cell bath (1 mL) mounted on the stage of an inverted microscope (Diaphot, Nikon) and were perfused with external solution containing (in mM) 130 NaCl, 4 KCl, 1.8 CaCl2), 1 MgCl2, 10 glucose and 10 HEPES (pH 7.4 with NaOH), the perfusion rate was 4 mL/min. The internal pipette solution contained (in mM) 130 KCl, 1 MgCl2, 5 ethylene glycol-bis(baminoethyl ether)-N,N,N8,N8-tetraacetic acid, 5 MgATP and 10 HEPES (pH 7.2 with KOH). An HEKA EPC-10 patch-clamp amplifier and PATCHMASTER acquisition program were used to record membrane currents (HEKA Instruments IncD-67466 Lambrecht/Pfalz Germany). All experiments were performed at room temperature (22-23° C.).
The Model P-97 micropipette puller (Sutter Instrument Company, One Digital Drive, Novato, Calif. 94949) was used to pull glass patch pipettes (BF150-86-10) in all experiments.
The experiments were initiated with a 2 min vehicle control period after forming a whole cell configuration with less 5% run-down in 5 min and the tail currents in the report were at least greater than 500 pA. After a 2 min vehicle control period, the perfusion was switched to the reservoir containing the compound at the first concentration. The same procedure was repeated 3-5 times so that each cell was exposed to 4-6 escalating concentrations of compound. The time courses for block and unblock of hERG during compounds exposure and washout were continuously recorded.
The peak tail of hERG was generated by applying 2-sec depolarizing every 12 sec steps from a holding potential of −80 mV, the peak of tail currents were measured at a 5-sec repolarizing pulse at −50 mV.
hERG peak tail currents were directly measured from a 5 sec repolarization pulse at −50 mV. The fraction of control current was plotted as a function of logarithm of compound concentration. To determine the concentration of compound for halfmaximum effect, the concentration-response curve was fitted by Hill equation as shown follow.
where Y is the observed value, Bottom is the lowest observed value (0), Top is the highest observed value (1), and the Hillcoefficient gives the largest absolute value of the slope of the curve.
Data were analyzed by a combination of PATCHMASTER ((HEKA Instruments IncD-67466 Lambrecht/Pfalz Germany) and Origin (OriginLab Corporation, Northampton, Mass.) software programs.
Data were expressed as mean±SEM.

In another experiment the target is T2, SHP2 (Homo sapiens, UniProt Q06124).
T2 sequence (Q06124 1-593): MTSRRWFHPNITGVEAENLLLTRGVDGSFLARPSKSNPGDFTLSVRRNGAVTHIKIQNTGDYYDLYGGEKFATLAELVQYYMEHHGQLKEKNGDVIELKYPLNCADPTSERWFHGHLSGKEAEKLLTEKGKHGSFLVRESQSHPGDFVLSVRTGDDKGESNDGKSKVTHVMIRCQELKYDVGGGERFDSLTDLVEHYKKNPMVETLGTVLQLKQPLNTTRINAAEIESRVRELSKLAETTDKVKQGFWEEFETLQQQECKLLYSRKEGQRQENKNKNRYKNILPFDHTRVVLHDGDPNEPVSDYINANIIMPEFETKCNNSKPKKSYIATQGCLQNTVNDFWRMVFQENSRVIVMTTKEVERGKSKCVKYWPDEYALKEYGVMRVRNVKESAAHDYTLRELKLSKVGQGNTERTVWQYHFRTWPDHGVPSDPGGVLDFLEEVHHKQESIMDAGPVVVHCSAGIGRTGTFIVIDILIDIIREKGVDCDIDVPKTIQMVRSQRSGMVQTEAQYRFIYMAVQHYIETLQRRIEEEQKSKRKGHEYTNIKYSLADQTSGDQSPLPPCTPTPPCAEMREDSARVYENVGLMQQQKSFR
The experiment in a line: SHP2 allosteric inhibitor enzyme activity assay (DiFMUP fluorescence). Format: biochemical. An outline of the steps: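 SHP2 activated by 0.5 μM IRS1_pY1172(dPEG8)pY1222 peptide, 0.2 ng enzyme per well, 1 h at room temperature with compound (1 μM top, 3-fold series), then DiFMUP substrate 1 h. Buffer: 60 mM HEPES, 75 mM NaCl, 75 mM KCl, 0.05% BRIJ-35, 1 mM EDTA, 5 mM DTT. Fluorescence ex 340/em 450 nm; IC50 by variable-slope fit.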

T1 sequence (Q12809 whole entry): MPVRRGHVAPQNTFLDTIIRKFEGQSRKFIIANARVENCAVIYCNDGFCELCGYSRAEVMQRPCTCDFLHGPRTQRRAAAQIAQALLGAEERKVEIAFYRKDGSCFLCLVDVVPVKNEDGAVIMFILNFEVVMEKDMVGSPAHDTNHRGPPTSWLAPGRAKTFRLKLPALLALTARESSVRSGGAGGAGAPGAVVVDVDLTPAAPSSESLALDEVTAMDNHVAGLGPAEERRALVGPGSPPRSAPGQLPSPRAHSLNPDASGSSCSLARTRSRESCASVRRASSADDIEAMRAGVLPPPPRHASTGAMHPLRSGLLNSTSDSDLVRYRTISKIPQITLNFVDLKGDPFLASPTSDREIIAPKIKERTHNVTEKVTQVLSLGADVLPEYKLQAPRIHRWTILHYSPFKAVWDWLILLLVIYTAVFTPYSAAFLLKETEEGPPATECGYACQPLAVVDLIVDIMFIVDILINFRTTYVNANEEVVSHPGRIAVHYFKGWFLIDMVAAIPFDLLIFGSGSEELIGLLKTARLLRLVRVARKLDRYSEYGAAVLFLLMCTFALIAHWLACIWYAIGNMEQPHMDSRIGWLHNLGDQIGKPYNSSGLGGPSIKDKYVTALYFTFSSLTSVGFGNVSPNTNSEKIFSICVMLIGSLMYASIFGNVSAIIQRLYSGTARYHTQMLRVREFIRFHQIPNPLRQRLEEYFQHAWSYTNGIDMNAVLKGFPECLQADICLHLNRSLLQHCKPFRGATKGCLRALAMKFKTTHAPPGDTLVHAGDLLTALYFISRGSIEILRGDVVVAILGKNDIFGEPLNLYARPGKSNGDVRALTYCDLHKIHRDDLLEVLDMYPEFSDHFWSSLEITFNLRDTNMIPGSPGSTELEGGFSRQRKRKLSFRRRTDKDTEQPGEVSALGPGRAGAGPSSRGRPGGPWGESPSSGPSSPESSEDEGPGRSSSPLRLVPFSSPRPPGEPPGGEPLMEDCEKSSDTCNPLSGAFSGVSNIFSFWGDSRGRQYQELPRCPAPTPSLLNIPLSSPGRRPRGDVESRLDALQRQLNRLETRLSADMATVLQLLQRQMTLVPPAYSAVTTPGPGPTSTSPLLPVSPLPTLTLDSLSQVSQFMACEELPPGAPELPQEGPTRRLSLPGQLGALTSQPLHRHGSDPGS

With `COc1ccc(C2(c3n[nH]c4nc(N5CCC6(CC5)Cc5ccccc5[C@H]6N)[nH]c(=O)c34)CC2)cc1` [Example 19, (S)-6-(1-amino-1,3-dihydrospiro[indene-2,4′-piperidin]-1′-yl)-3-(1-(4-methoxyphenyl)cyclopropyl)-1,5-dihydro-4H-pyrazolo[3,4-d]pyrimidin-4-one], the 50% inhibitory concentration (IC50) in the experiment with leukemia MV-4-11 cell is no more than 20 nM; in experiment [1], 20 to 60 nM; on hERG channel, 11700 nM.
On to `N[C@@H]1c2ccccc2CC12CCN(c1nc3[nH]nc(C4(c5cccc(-n6cccn6)c5)CC4)c3c(=O)[nH]1)CC2` [Example 38, (S)-3-(1-(3-(1H-pyrazol-1-yl)phenyl)cyclopropyl)-6-(1-amino-1,3-dihydrospiro[indene-2,4′-piperidin]-1′-yl)-1,5-dihydro-4H-pyrazolo[3,4-d]pyrimidin-4-one], for which the values for the IC50 at SHP2 (numeric values) and at hERG channel were 3.1 nM and 14200 nM, respectively.
For `N[C@@H]1c2ccccc2CC12CCN(c1nc3[nH]nc(C4(c5cccc(O)c5)CC4)c3c(=O)[nH]1)CC2` [Example 42, (S)-6-(1-amino-1,3-dihydrospiro[indene-2,4′-piperidin]-1′-yl)-3-(1-(3-hydroxyphenyl)cyclopropyl)-1,5-dihydro-4H-pyrazolo[3,4-d]pyrimidin-4-one] the same measures were 1.9 nM and greater than 30000 nM.
For the compound `N[C@@H]1c2ccccc2CC12CCN(c1nc3[nH]nc(C4(c5ccccc5)CCC4)c3c(=O)[nH]1)CC2` [Example 90], the IC50 was no more than 20 nM against SHP2 (class symbols) and 4950 nM at hERG channel.
For `N[C@@H]1c2ccccc2CC12CCN(c1nc3[nH]nc([C@H]4C[C@@H]4c4ccccc4)c3c(=O)[nH]1)CC2` [Example 185], the IC50 at SHP2 (numeric values) was 0.48 nM; on hERG channel, 590 nM.
`CCC(c1ccccc1)c1n[nH]c2nc(N3CCC4(CC3)Cc3ccccc3[C@H]4N)[nH]c(=O)c12` (stereo partly drawn) [Example 217, 6-((S)-1-amino-1,3-dihydrospiro[indene-2,4′-piperidin]-1′-yl)-3-(1-phenylpropyl)-1,5-dihydro-4H-pyrazolo[3,4-d]pyrimidin-4-one]: the IC50 was no more than 20 nM on SHP2 (class symbols) and 540 nM on hERG channel.
For `COc1ccc(C2(c3n[nH]c4nc(N5CCC6(CC5)Cc5ccccc5[C@H]6N)[nH]c(=O)c34)CC2)cc1OC` [Example 221, (S)-6-(1-amino-1,3-dihydrospiro[indene-2,4′-piperidin]-1′-yl)-3-(1-(3,4-dimethoxyphenyl)cyclopropyl)-1,5-dihydro-4H-pyrazolo[3,4-d]pyrimidin-4-one] the same measures were no more than 20 nM and greater than 30000 nM.
Turning to `CCOC(=O)Nc1ccc(C2(c3n[nH]c4nc(N5CCC6(CC5)Cc5ccccc5[C@H]6N)[nH]c(=O)c34)CC2)cc1` [Example 231, ethyl (S)-(4-(1-(6-(1-amino-1,3-dihydrospiro[indene-2,4′-piperidin]-1′-yl)-4-oxo-4,5-dihydro-1H-pyrazolo[3,4-d]pyrimidin-3-yl)cyclopropyl)phenyl)carbamate], the half-inhibitory concentration (IC50) with leukemia MV-4-11 cell is no more than 20 nM; in experiment [1] it was 20 to 60 nM; on hERG channel, 7500 nM.
For `N[C@@H]1c2ccccc2CC12CCN(c1nc3[nH]nc(C4(c5nc6ccccc6o5)CC4)c3c(=O)[nH]1)CC2` [Example 252, (S)-6-(1-amino-1,3-dihydrospiro[indene-2,4′-piperidin]-1′-yl)-3-(1-(benzo[d]oxazol-2-yl)cyclopropyl)-1,5-dihydro-4H-pyrazolo[3,4-d]pyrimidin-4-one], the IC50 was no more than 20 nM on SHP2 (class symbols) and 20900 nM on hERG channel.
Consider `N[C@@H]1c2ccccc2CC12CCN(c1nc3[nH]nc(C4(n5cccn5)CC4)c3c(=O)[nH]1)CC2` [Example 255, (S)-3-(1-(1H-pyrazol-1-yl)cyclopropyl)-6-(1-amino-1,3-dihydrospiro[indene-2,4′-piperidin]-1′-yl)-1,5-dihydro-4H-pyrazolo[3,4-d]pyrimidin-4-one], for which the 50% inhibitory concentration (IC50) on hERG channel was greater than 30000 nM.
